Reference: PMC8064491, “Design and Synthesis of Novel Symmetric Fluorene-2,7-Diamine Derivatives as Potent Hepatitis C Virus Inhibitors” (Pharmaceuticals, 2021)
pEC50: −log10 of the molar value. Read-outs that look alike come from different tables or passages of the source.

Experiments:
[1] = test system: HCV subgenomic reporter replicon of genotype 1b (strain Con1); experiment: Anti-HCV 1b activity, luciferase reporter replicon assay in Huh5-2 cells; assay type: cell-based, Hepatitis C virus; settings: for pEC50: Hepatitis C virus, read-out: HCV Replicon 1b EC50; for HCV Replicon 1b SI50: SI50 = CC50/EC50; for fold more potent than six-membered congeners: 1, 9, 17, 21 vs 29, 30, 31, 32 respectively
Procedure: (§1) The HCV RNA replication inhibitory effect of the novel compounds and their impact on cell viability was tested in the stable cell line Huh5-2 carrying an HCV subgenomic reporter replicon of genotype 1b (strain Con1). The viral replication level was measured in terms of the activity of the co-expressed firefly luciferase (F-Luc). Several concentrations of the tested compounds were prepared in a cell culture medium and were used to treat the cells for 72 h. The solvent DMSO was added as a control with a final concentration of 0.2% so as not to impact viral replication (data not shown). First, different compound concentrations of up to 100 μM were evaluated for their effect on cell viability; results are reported as the median cytotoxic concentration (CC50). Next, all compounds were screened for their anti-HCV activity at a concentration of 1 µM, and compounds showing ≥50% activity were further tested in several concentrations to calculate the median effective concentration (EC50) values (Table 1 and Table 2). The anti-HCV activity of the analogs 1–32 was estimated by quantifying luciferase activity resulting from viral replication. Cytotoxicity was determined by measuring the intracellular levels of ATP. The selectivity index (SI50) was calculated as the ratio of CC50 to EC50 and was calculated as an indication of the compounds’ safety. We used daclatasvir as a positive control.
The stable replicon cell line Huh5-2 (genotype 1b; Con1) (kindly provided by R. Bartenschlager, Heidelberg University, Germany) has been described previously. The stable cell lines Huh7.5-3a and Huh7.5-4a have been constructed with the subgenomic reporter replicons of HCV 3a (S52) S52-SG(Feo)(AII) and HCV 4a (ED43) ED43-SG(Feo)(VYG) (kindly provided by C.M. Rice, The Rockefeller University, NY). Cells were cultured in high glucose (25 mM) Dulbecco’s modified minimal essential medium (Invitrogen), supplemented with 2 mM L-glutamine, 0.1 mM non-essential amino acids, 100 U/mL penicillin, 100 µg/mL streptomycin, and 10% (v/v) fetal calf serum (referred to as complete DMEM). Complete DMEM was supplemented with G418 at 500 μg/mL for Huh5-2, 750 μg/mL for Huh7.5-3a, and 350 μg/mL for Huh7.5-4a.
(§2) Cells were treated with serial dilutions of the test compounds or the solvent DMSO for 72 h. Antiviral activity and cytotoxicity were determined by measuring virus-derived luciferase activity or intracellular ATP levels, respectively. The median effective concentration (EC50) of the compounds, reducing luciferase signal by 50%, and their median cytotoxic concentration (CC50), causing 50% cell death, were determined by nonlinear regression analysis using the Prism 6.0 software (GraphPad Software Inc.). Daclatasvir was kindly provided by Dr. Marc Windisch (Institut Pasteur Korea).
Firefly luciferase activity was measured using Luciferase Assay System (Promega), according to the manufacturer’s instructions. Measurements were performed with a GloMax 20/20 single tube luminometer (Promega) for 10 s. Values were normalized to total protein amounts as quantified by Bradford assay (Pierce).

[2] = Cytotoxicity by intracellular ATP levels; assay type: cell-based; settings: human, Huh5-2 cells, read-out: HCV Replicon 1b CC50
Procedure: as §1, §2
ATP was measured using the ViaLight HS BioAssay kit (Lonza) according to the manufacturer’s protocol in a GloMax 20/20 single-tube luminometer (Promega) for 1 s. Values were normalized to total protein amounts.

[3] = Huh-5-2, Huh5-2 cells, 72 h, luciferase activity

Structure (SMILES)	pEC50 ([1]; Huh-5-2, 72 h)	HCV Replicon 1b SI50 [1]	CC50 at 72 h [2]	fold more potent than six-membered congeners ([1]; HCV 1b EC50 ratio)	times less potent than compound 26 ([1]; HCV 1b EC50 ratio)	pEC50 [1, 3]	fold more active than S counterparts ([1]; 25 vs 21, 26 vs 22, HCV 1b EC50 ratio)
CC(C)[C@@H](NC(=O)OCc1ccccc1)C(=O)N1CCC[C@H]1C(=O)Nc1ccc2c(c1)Cc1cc(NC(=O)[C@@H]3CCCN3C(=O)[C@H](NC(=O)OCc3ccccc3)C(C)C)ccc1-2 [Compound 8, Dibenzyl((2R,2’R)-((2S,2’S)-(((9H-fluorene-2,7-diyl)bis(azanediyl))bis(carbonyl))bis(pyrrolidine-2,1-diyl))bis(3-methyl-1-oxobutane-1,2-diyl))dicarbamate]	7.34	>2202	> 100000 nM	–	–	–	–
CC(C)[C@H](NC(=O)OCc1ccccc1)C(=O)N1CCC[C@H]1C(=O)Nc1ccc2c(c1)Cc1cc(NC(=O)[C@@H]3CCCN3C(=O)[C@@H](NC(=O)OCc3ccccc3)C(C)C)ccc1-2 [Compound 4, Dibenzyl ((2S,2’S)-((2S,2’S)-(((9H-fluorene-2,7-diyl)bis(azanediyl))bis(carbonyl))bis(pyrrolidine-2,1-diyl))bis(3-methyl-1-oxobutane-1,2-diyl))dicarbamate]	6.01	>103	> 100000 nM	–	–	–	–
CCCCOC(=O)N[C@H](C(=O)N1CCC[C@H]1C(=O)Nc1ccc2c(c1)Cc1cc(NC(=O)[C@@H]3CCCN3C(=O)[C@@H](NC(=O)OCCCC)c3ccccc3)ccc1-2)c1ccccc1 [Compound 23, Dibutyl((1S,1’S)-((2S,2’S)-(((9H-fluorene-2,7-diyl)bis(azanediyl))bis(carbonyl))bis(pyrrolidine-2,1-diyl))bis(2-oxo-1-phenylethane-2,1-diyl))dicarbamate]	8.65	>44,444	> 100000 nM	–	–	–	–
COC(=O)N[C@@H](CC(C)C)C(=O)N1CCCC(C(=O)Nc2ccc3c(c2)Cc2cc(NC(=O)C4CCCN(C(=O)[C@H](CC(C)C)NC(=O)OC)C4)ccc2-3)C1 (some centres unmarked) [Compound 30]	6.54	>346	> 100000 nM	–	–	–	–
CCC(C)[C@H](NC(=O)OC)C(=O)N1CCCC(C(=O)Nc2ccc3c(c2)Cc2cc(NC(=O)C4CCCN(C(=O)[C@@H](NC(=O)OC)C(C)CC)C4)ccc2-3)C1 (some centres unmarked) [Compound 31]	6.53	333	98300 nM	–	–	–	–
COC(=O)N[C@H](C(=O)N1CCCC(C(=O)Nc2ccc3c(c2)Cc2cc(NC(=O)C4CCCN(C(=O)[C@@H](NC(=O)OC)c5ccccc5)C4)ccc2-3)C1)c1ccccc1 (some centres unmarked) [Compound 32]	6.52	>328	> 100000 nM	–	–	–	–
COC(=O)N[C@H](C(=O)N1CCC[C@H]1C(=O)Nc1ccc2c(c1)Cc1cc(NC(=O)[C@@H]3CCCN3C(=O)[C@@H](NC(=O)OC)c3ccccc3)ccc1-2)c1ccccc1 [Compound 21, Dimethyl((1S,1’S)-((2S,2’S)-(((9H-fluorene-2,7diyl)bis(azanediyl))bis(carbonyl))bis(pyrrolidine-2,1-diyl))bis(2-oxo-1-phenylethane-2,1-diyl))dicarbamate]	8.07	10,298	87500 nM	36 fold	–	–	–
O=C(N[C@@H](C(=O)N1CCC[C@H]1C(=O)Nc1ccc2c(c1)Cc1cc(NC(=O)[C@@H]3CCCN3C(=O)[C@H](NC(=O)OCc3ccccc3)c3ccccc3)ccc1-2)c1ccccc1)OCc1ccccc1 [Compound 28, Dibenzyl((1R,1’R)-((2S,2’S)-(((9H-fluorene-2,7-diyl)bis(azanediyl))bis(carbonyl)) Bis(pyrrolidine-2,1-diyl))bis(2-oxo-1-phenylethane-2,1-diyl))dicarbamate]	–	>1,058	> 100000 nM	–	2363 times	7.02	–
CCOC(=O)N[C@H](CC(C)C)C(=O)N1CCC[C@H]1C(=O)Nc1ccc2c(c1)Cc1cc(NC(=O)[C@@H]3CCCN3C(=O)[C@@H](CC(C)C)NC(=O)OCC)ccc1-2 [Compound 14, Diethyl ((2R,2’R)-((2S,2’S)-(((9H-fluorene-2,7-diyl)bis(azanediyl))bis(carbonyl))bis(pyrrolidine-2,1-diyl))bis(4-methyl-1-oxopentane-1,2-diyl))dicarbamate]	8.59	>39,185	> 100000 nM	–	–	–	–
CC(C)(C)OC(=O)N1CCCC(C(=O)Nc2ccc3c(c2)Cc2cc(NC(=O)C4CCCN(C(=O)OC(C)(C)C)C4)ccc2-3)C1 (centres unmarked) [IV, Di-tert-butyl3,3’-(((9H-fluorene-2,7diyl)bis(azanediyl))bis(carbonyl))bis(piperidine-1-carboxylate)]	–	–	45000 nM	–	–	< 6.00	–
COC(=O)N[C@H](C(=O)N1CCCC(C(=O)Nc2ccc3c(c2)Cc2cc(NC(=O)C4CCCN(C(=O)[C@@H](NC(=O)OC)C(C)C)C4)ccc2-3)C1)C(C)C (some centres unmarked) [Compound 29]	6.47	>292	> 100000 nM	–	–	–	–
CCOC(=O)N[C@H](C(=O)N1CCC[C@H]1C(=O)Nc1ccc2c(c1)Cc1cc(NC(=O)[C@@H]3CCCN3C(=O)[C@@H](NC(=O)OCC)C(C)C)ccc1-2)C(C)C [Compound 2, Diethyl((2S,2’S)-((2S,2’S)-(((9H-fluorene-2,7-diyl)bis(azanediyl))bis(carbonyl))bis(pyrrolidine-2,1-diyl))bis(3-methyl-1-oxobutane-1,2-diyl))dicarbamate]	< 6.00	–	> 100000 nM	–	–	–	–
CC(C)C[C@@H](NC(=O)OCc1ccccc1)C(=O)N1CCC[C@H]1C(=O)Nc1ccc2c(c1)Cc1cc(NC(=O)[C@@H]3CCCN3C(=O)[C@@H](CC(C)C)NC(=O)OCc3ccccc3)ccc1-2 [Compound 16, Dibenzyl((2R,2’R)-((2S,2’S)-(((9H-fluorene-2,7-diyl)bis(azanediyl))bis(carbonyl))bis(pyrrolidine-2,1-diyl))bis(4-methyl-1-oxopentane-1,2-diyl))dicarbamate]	< 6.00	–	> 100000 nM	–	–	–	–
COC(=O)N[C@@H](C(=O)N1CCC[C@H]1C(=O)Nc1ccc2c(c1)Cc1cc(NC(=O)[C@@H]3CCCN3C(=O)[C@H](NC(=O)OC)c3ccccc3)ccc1-2)c1ccccc1 [Compound 25, Dimethyl((1R,1’R)-((2S,2’S)-(((9H-fluorene-2,7-diyl)bis(azanediyl))bis(carbonyl))bis(pyrrolidine-2,1-diyl))bis(2-oxo-1-phenylethane-2,1-diyl))dicarbamate]	9.85	669,874	95400 nM	–	four times less potent	–	60 fold
CCOC(=O)N[C@H](C(=O)N1CCC[C@H]1C(=O)Nc1ccc2c(c1)Cc1cc(NC(=O)[C@@H]3CCCN3C(=O)[C@@H](NC(=O)OCC)c3ccccc3)ccc1-2)c1ccccc1 [Compound 22, Diethyl((1S,1’S)-((2S,2’S)-(((9H-fluorene-2,7-diyl)bis(azanediyl))bis(carbonyl))bis(pyrrolidine-2,1-diyl))bis(2-oxo-1-phenylethane-2,1-diyl))dicarbamate]	8.13	>13,349	> 100000 nM	–	–	–	–
COC(=O)N[C@H](C(=O)N1CCC[C@H]1C(=O)Nc1ccc2c(c1)Cc1cc(NC(=O)[C@@H]3CCCN3C(=O)[C@@H](NC(=O)OC)C(C)C)ccc1-2)C(C)C [Compound 1, Dimethyl((2S,2’S)-((2S,2’S)-(((9H-fluorene-2,7-diyl)bis(azanediyl))bis(carbonyl))bis(pyrrolidine-2,1-diyl))bis(3-methyl-1-oxobutane-1,2-diyl))dicarbamate]	–	–	–	five	–	–	–
